Experimental findings from ChEMBL document CHEMBL3822409, “Synthesis and antitubercular activity of new 1,3,4-oxadiazoles bearing pyridyl and thiazolyl scaffolds” (Bioorg Med Chem Lett, 2016) are described below.

Data set [1] is described as follows: Selectivity index, ratio of CC50 for human HeLa cells to MIC for dormant stage of Mycobacterium bovis BCG ATCC 35734. It is filed as toxicity, cell-based. Particulars: read-out: Selectivity Index.
Data set [2] is described as follows: Cytotoxicity against human PANC1 cells by MTT assay. It is filed as cell-based, PANC-1. For orientation: Tetrazolium dyes change colour on reduction, which living cells bring about.
In data set [3] the test system is Mycobacterium tuberculosis. The data set can be described thus: Antimycobacterial activity against active stage of Mycobacterium tuberculosis H37Ra ATCC 25177 measured on day 8 by XTT reduction menadione assay. It counts as functional, organism-based. As to conditions: H37Ra ATCC 25177, 192 h.
Data set [4] in a line: Selectivity index, ratio of CC50 for human HCT116 cells to MIC for dormant stage of Mycobacterium bovis BCG ATCC 35734. It counts as toxicity, cell-based, HCT-116. Particulars: read-out: Selectivity Index.
Data set [5] is described as follows: Cytotoxicity against human HeLa cells by MTT assay. It is filed as cell-based.
The nature of data set [6]: Selectivity index, ratio of CC50 for human HeLa cells to MIC for active stage of Mycobacterium bovis BCG ATCC 35734. It counts as toxicity, cell-based. As to conditions: read-out: Selectivity Index.
Data set [7] in a line: Selectivity index, ratio of CC50 for human THP1 cells to MIC for active stage of Mycobacterium bovis BCG ATCC 35734. It is filed as toxicity, cell-based, THP-1. Particulars: read-out: Selectivity Index.
Data set [8] can be described thus: Selectivity index, ratio of CC50 for human THP1 cells to MIC for dormant stage of Mycobacterium bovis BCG ATCC 35734. Particulars: read-out: Selectivity Index. It is filed as toxicity, cell-based, THP-1.
Data set [9] is described as follows: Cytotoxicity against human THP1 cells by MTT assay. It counts as cell-based, THP-1.
Data set [10] is described as follows: Selectivity index, ratio of CC50 for human PANC1 cells to MIC for dormant stage of Mycobacterium bovis BCG ATCC 35734. It is filed as toxicity, cell-based, PANC-1. As to conditions: read-out: Selectivity Index.
Data set [11] in a line: Selectivity index, ratio of CC50 for human PANC1 cells to MIC for active stage of Mycobacterium bovis BCG ATCC 35734. It is filed as toxicity, cell-based, PANC-1. As to conditions: read-out: Selectivity Index.
Data set [12] has as its system Mycobacterium tuberculosis. The data set can be described thus: Antimycobacterial activity against dormant stage of Mycobacterium tuberculosis H37Ra ATCC 25177 measured on day 12 by XTT reduction menadione assay. It is filed as functional, organism-based. As to conditions: H37Ra ATCC 25177, 288 h.
Data set [13] can be described thus: Selectivity index, ratio of CC50 for human HCT116 cells to MIC for active stage of Mycobacterium bovis BCG ATCC 35734. It is filed as toxicity, cell-based, HCT-116. As to conditions: read-out: Selectivity Index.
The nature of data set [14]: Cytotoxicity against human HCT116 cells by MTT assay. It counts as cell-based, HCT-116.

In brackets after ≈: the same amount, converted by molar mass. A value given as a limit tells only on which side of the number the result lay.

One may read the CC50 as the concentration giving 50% cytotoxicity. A low value points to harm at low concentration. One may read the IC50 as the concentration that gives 50% inhibition. By MIC is commonly meant the lowest concentration that inhibits growth of the organism. The low end stands for greater potency, the high end for weaker potency. For `Cc1nc(-c2cccnc2)sc1-c1nnc(-c2ccccc2)o1`, the selectivity ratio in [1], in data set [4], in [6], in data set [7], in data set [8] and in [10] was 3 throughout. The selectivity ratio in [11] and in data set [13] was 3 throughout. Moreover, the CC50 in data set [2], in data set [5], in data set [9] and in [14] was above 100 µg/mL throughout. The concentration for half-maximal inhibition (IC50) in [3] and in data set [12] was above 30 µg/mL in each case. The minimum inhibitory concentration (MIC) in [3] and in [12] was above 30 µg/mL throughout.
`Cc1nc(-c2cccnc2)sc1-c1nnc(-c2ccc(O)cc2)o1`: the selectivity ratio in data set [1], in [4], in data set [6], in [7], in [8] and in data set [10] was 3 in each case. Further, the selectivity ratio in data set [11] and in data set [13] was 3 each time. Besides, the CC50 in data set [2], in data set [5], in data set [9] and in [14] was above 100 µg/mL each time. The half-maximal inhibitory concentration (IC50) in [3] and in data set [12] was above 30 µg/mL each time. Further, the minimal inhibitory concentration (MIC) in [3] and in data set [12] was above 30 µg/mL in each case.
As for `Cc1nc(-c2cccnc2)sc1-c1nnc(-c2cccc(Cl)c2Cl)o1`, the selectivity ratio in data set [1], in [4], in data set [6], in [7], in [8] and in [10] was 3 throughout. Besides, the selectivity ratio in [11] and in data set [13] was 3 each time. The cytotoxic concentration (CC50) in data set [2], in data set [5], in [9] and in data set [14] was above 100 µg/mL each time. For the same compound, the IC50 in [3] and in data set [12] was above 30 µg/mL throughout. Besides, the MIC in [3] and in data set [12] was above 30 µg/mL throughout.
`COc1ccccc1-c1nnc(-c2sc(-c3cccnc3)nc2C)o1`: the selectivity ratio is 25 in [1]; 25 in data set [4]; 38 in [6]; 38 in data set [7]; 25 in [8]; 25 in data set [10]. Moreover, the selectivity ratio in data set [11] and in [13] was 38 throughout. For the same compound, the half-maximal cytotoxic concentration (CC50) in [2], in [5], in data set [9] and in [14] was above 100 µg/mL in each case. Besides, the IC50 in data set [3] and in data set [12] was above 30 µg/mL in each case. Also, the minimal inhibitory concentration (MIC) in data set [3] and in [12] was above 30 µg/mL in each case.
In the case of `Cc1ccc(-c2nnc(-c3sc(-c4cccnc4)nc3C)o2)cc1`, the selectivity ratio in [1], in [4], in data set [6], in data set [7], in data set [8] and in [10] was 3 each time. In addition, the selectivity ratio in [11] and in data set [13] was 3 each time. The 50% cytotoxic concentration (CC50) in data set [2], in data set [5], in [9] and in data set [14] was above 100 µg/mL in each case. The IC50 in [3] and in data set [12] was above 30 µg/mL in each case. Further, the MIC in data set [3] and in data set [12] was above 30 µg/mL in each case.
For the compound `Cc1nc(-c2cccnc2)sc1-c1nnc(-c2ccncc2)o1`, the selectivity ratio in data set [1], in data set [4], in data set [6], in data set [7], in [8] and in data set [10] was 2 throughout. For the same compound, the selectivity ratio in data set [11] and in [13] was 2 each time. The CC50 in data set [2], in [5], in data set [9] and in [14] was above 100 µg/mL throughout. Moreover, the concentration for half-maximal inhibition (IC50) in [3] and in data set [12] was above 30 µg/mL throughout. For the same compound, the MIC in data set [3] and in data set [12] was above 30 µg/mL each time.
With `Cc1ccccc1-c1nnc(-c2sc(-c3cccnc3)nc2C)o1`, the selectivity ratio in data set [1] came out at 20; in data set [4], 20; in [6], 17; in [7], 17; in data set [8] it was 20; in [10], 20. Moreover, the selectivity ratio in data set [11] and in data set [13] was 17 throughout. Further, the CC50 in data set [2], in [5], in [9] and in data set [14] was above 100 µg/mL in each case. Moreover, the concentration for half-maximal inhibition (IC50) in [3] and in [12] was above 30 µg/mL each time. Moreover, the minimum inhibitory concentration (MIC) in [3] and in data set [12] was above 30 µg/mL each time.
With `Cc1nc(-c2cccnc2)sc1-c1nnc(-c2ccccc2Cl)o1`, the selectivity ratio in data set [1] came out at 21; in data set [4], 21; in data set [6], 19; in [7], 19; in data set [8] it was 21; in [10] it was 21. Further, the selectivity ratio in data set [11] and in data set [13] was 19 each time. Besides, the CC50 in data set [2], in data set [5], in [9] and in [14] was above 100 µg/mL each time. For the same compound, the IC50 in data set [3] and in data set [12] was above 30 µg/mL throughout. The minimal inhibitory concentration (MIC) in data set [3] and in data set [12] was above 30 µg/mL in each case.
Turning to `Cc1cccc(-c2nnc(-c3sc(-c4cccnc4)nc3C)o2)c1`, the selectivity ratio in data set [1], in data set [4], in [6], in data set [7], in data set [8] and in data set [10] was 3 each time. Moreover, the selectivity ratio in data set [11] and in data set [13] was 3 in each case. The half-maximal cytotoxic concentration (CC50) in [2], in data set [5], in data set [9] and in data set [14] was above 100 µg/mL each time. The IC50 in data set [3] and in data set [12] was above 30 µg/mL throughout. Also, the minimum inhibitory concentration (MIC) in data set [3] and in [12] was above 30 µg/mL throughout.
As to `Cc1nc(-c2cccnc2)sc1-c1nnc(-c2ccc(Br)cc2)o1`, the selectivity ratio in data set [1], in data set [4], in [6], in data set [7], in data set [8] and in data set [10] was 3 throughout. In addition, the selectivity ratio in data set [11] and in data set [13] was 3 in each case. The CC50 in [2], in data set [5], in data set [9] and in data set [14] was above 100 µg/mL in each case. Moreover, the half-maximal inhibitory concentration (IC50) in [3] and in [12] was above 30 µg/mL in each case. The minimum inhibitory concentration (MIC) in data set [3] and in [12] was above 30 µg/mL in each case.
For `Cc1nc(-c2cccnc2)sc1-c1nnc(-c2cccnc2)o1`, the selectivity ratio worked out at 1 in data set [1]; 1 in [4]; 2 in data set [6]; 2 in data set [7]; 1 in data set [8]; 1 in [10]. In addition, the selectivity ratio in [11] and in [13] was 2 each time. Moreover, the cytotoxic concentration (CC50) in [2], in [5], in [9] and in data set [14] was above 100 µg/mL each time. Besides, the IC50 in data set [3] and in data set [12] was above 30 µg/mL each time. For the same compound, the MIC in [3] and in data set [12] was above 30 µg/mL in each case.
Take `Cc1nc(-c2cccnc2)sc1-c1nnc(-c2ccc(Cl)cc2)o1`: the selectivity ratio in data set [1], in [4], in data set [6], in data set [7], in data set [8] and in data set [10] was 3 throughout. The selectivity ratio in data set [11] and in data set [13] was 3 each time. In addition, the cytotoxic concentration (CC50) in [2], in data set [5], in data set [9] and in data set [14] was above 100 µg/mL throughout. The IC50 in [3] and in data set [12] was above 30 µg/mL in each case. Moreover, the MIC in [3] and in [12] was above 30 µg/mL in each case.
Turning to `CC(=O)O[C@H]1C(=O)[C@@]2(C)[C@H]([C@H](OC(=O)c3ccccc3)[C@]3(O)C[C@H](OC(=O)[C@H](O)[C@@H](NC(=O)c4ccccc4)c4ccccc4)C(C)=C1C3(C)C)[C@]1(OC(C)=O)CO[C@@H]1C[C@@H]2O` [PACLITAXEL], the CC50 worked out at 0.128 µg/mL (≈ 0.15 µM) in data set [2], 0.0048 µg/mL (≈ 0.00562 µM) in data set [5], 0.137 µg/mL (≈ 0.161 µM) in data set [9] and 1.85 µg/mL (≈ 2.17 µM) in [14].
